We go through 6 compounds from publication PMC9127186, “Molecular Basis Underlying Hepatobiliary and Renal Excretion of Phenolic Acids of Salvia miltiorrhiza Roots (Danshen)” (Frontiers in Pharmacology, 2022).

For one data set, the target named is T1, rat Bsep (Rattus norvegicus, UniProt O70127).
T1 sequence (O70127 1-1321): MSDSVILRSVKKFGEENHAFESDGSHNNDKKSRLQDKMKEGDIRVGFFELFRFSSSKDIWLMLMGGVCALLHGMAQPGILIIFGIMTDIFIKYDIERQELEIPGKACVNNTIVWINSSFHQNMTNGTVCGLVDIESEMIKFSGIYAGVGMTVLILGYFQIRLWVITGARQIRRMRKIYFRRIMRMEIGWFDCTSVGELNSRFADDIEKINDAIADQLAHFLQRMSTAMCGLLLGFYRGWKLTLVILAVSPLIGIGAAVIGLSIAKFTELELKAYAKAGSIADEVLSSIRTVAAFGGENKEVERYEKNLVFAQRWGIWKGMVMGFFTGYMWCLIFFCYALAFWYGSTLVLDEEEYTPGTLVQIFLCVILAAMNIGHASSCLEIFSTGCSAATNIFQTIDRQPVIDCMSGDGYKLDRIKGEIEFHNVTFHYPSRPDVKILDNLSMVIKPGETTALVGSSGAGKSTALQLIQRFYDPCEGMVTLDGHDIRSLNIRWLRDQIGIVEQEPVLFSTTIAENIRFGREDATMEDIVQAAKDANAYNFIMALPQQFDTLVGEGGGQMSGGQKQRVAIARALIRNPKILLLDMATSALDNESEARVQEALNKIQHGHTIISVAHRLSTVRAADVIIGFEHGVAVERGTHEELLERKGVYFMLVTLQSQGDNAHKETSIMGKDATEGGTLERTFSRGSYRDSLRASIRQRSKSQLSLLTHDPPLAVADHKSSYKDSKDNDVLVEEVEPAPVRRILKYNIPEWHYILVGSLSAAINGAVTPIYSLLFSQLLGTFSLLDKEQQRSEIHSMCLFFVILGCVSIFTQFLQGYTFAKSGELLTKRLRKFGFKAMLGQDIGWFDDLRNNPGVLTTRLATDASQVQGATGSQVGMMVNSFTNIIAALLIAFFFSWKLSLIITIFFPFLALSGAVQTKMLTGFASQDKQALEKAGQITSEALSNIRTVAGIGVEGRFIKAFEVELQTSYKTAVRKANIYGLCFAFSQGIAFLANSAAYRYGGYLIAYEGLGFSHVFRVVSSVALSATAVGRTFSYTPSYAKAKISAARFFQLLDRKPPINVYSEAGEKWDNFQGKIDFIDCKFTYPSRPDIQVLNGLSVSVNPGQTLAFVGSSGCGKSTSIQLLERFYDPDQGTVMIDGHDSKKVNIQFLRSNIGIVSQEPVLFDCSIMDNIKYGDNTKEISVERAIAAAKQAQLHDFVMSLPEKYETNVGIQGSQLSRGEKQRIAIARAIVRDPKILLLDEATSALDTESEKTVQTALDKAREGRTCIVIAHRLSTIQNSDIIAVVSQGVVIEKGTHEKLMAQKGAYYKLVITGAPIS
In words: Vesicular transport assay, inside-out membrane vesicles expressing rat Bsep. Conditions: 10 min. How it is done:
Inside-out membrane vesicles (5 mg protein/mL), prepared from insect cells expressing human multidrug resistance-associated protein (MRP) 2, MRP3, MRP4, breast cancer resistance protein (BCRP), bile salt export pump (BSEP), and multidrug resistance protein (MDR) one and rat Mrp2, Mrp4, Bcrp, and Bsep, and vesicles (5 mg protein/mL; prepared from the insect cells expressing no ABC transporter; serving as negative control) were obtained from Genomembrane (Kanazawa, Japan).
The test Danshen compounds at 100 µM final concentration were separately incubated with the membrane vesicles for 10 min. Buffer C (50 mM MOPS-tris, 70 mM KCl, 7.5 mM MgCl2, pH 7.0) was used for preincubation and incubation, while buffer D (40 mM MOPS-tris, 70 mM KCl, pH 7.0) was used for vesicle washing. The transport rate (pmol/mg protein/min) of the test Danshen compound was calculated using Equation (2): Transport=(CV×VV)/T/WV (2) where C V, V V, T, and W V represent concentration of the compound in vesicular lysates supernatant (μM), volume of the lysates (μL), incubation time (10 min), and amount of vesicle protein amount per well (0.05 mg), respectively. Differential transport of the test Danshen compound between ATP-containing vesicles and AMP-containing vesicles was defined as net transport ratio (TransportATP/TransportAMP ratio). […] All the incubation samples were analyzed by liquid chromatography/mass spectrometry.

A further data set concerns the target T2, rat Oatp1a1 (Rattus norvegicus, UniProt P46720).
T2 sequence (P46720 1-670): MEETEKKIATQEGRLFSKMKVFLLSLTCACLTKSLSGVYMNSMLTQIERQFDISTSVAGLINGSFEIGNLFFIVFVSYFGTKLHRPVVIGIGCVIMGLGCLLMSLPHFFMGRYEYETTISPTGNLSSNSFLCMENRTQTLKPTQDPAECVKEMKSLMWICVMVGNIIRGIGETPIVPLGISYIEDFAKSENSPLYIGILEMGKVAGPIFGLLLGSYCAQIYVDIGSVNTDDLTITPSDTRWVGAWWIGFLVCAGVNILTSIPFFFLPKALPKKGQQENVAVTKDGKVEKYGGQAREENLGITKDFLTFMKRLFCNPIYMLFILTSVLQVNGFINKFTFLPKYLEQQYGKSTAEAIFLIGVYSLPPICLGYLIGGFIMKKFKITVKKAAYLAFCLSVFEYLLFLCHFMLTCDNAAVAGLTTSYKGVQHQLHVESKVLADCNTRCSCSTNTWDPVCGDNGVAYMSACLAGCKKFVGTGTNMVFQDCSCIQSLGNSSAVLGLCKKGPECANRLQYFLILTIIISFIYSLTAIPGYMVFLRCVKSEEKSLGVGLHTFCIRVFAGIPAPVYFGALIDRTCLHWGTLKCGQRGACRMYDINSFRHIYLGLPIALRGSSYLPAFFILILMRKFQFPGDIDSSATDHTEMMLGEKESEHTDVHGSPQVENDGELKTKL
In words: Cellular transport assay, HEK-293 cells expressing rat Oatp1a1. Conditions: Danshen phenolic acid at 100 μM final concentration, 10 min; rat Oatp1a1-transfected vs mock cells.

Another data set deals with T3, rat Ntcp (Rattus norvegicus, UniProt P26435).
T3 sequence (P26435 1-362): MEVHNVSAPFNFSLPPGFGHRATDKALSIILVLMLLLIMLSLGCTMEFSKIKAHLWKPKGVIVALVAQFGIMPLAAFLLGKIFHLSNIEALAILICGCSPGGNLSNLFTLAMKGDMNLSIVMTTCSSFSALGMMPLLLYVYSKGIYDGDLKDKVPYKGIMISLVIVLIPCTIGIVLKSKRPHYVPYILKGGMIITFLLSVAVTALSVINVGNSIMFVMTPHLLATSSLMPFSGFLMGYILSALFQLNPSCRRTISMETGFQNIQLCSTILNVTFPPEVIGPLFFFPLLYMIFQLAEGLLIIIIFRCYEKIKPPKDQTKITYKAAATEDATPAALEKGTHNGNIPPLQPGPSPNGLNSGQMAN
The experiment in a line: Cellular transport assay, HEK-293 cells expressing rat Ntcp. The conditions noted are these: Danshen phenolic acid at 100 μM final concentration, 10 min; rat Ntcp-transfected vs mock cells.

Where [1] appears, read: Danshen phenolic acid at 100 μM final concentration, rat Bsep vesicles.

As for `O=C(/C=C/c1ccc(O)c2c1[C@H](C(=O)O)[C@@H](c1ccc(O)c(O)c1)O2)O[C@H](Cc1ccc(O)c(O)c1)C(=O)O` [Lithospermic acid, lithospermic acid], the “TransportATP/TransportAMP ratio (net transport ratio)” value (shortened to “TransportATP/TransportAMP ratio”) on rat Bsep (setting [1]) is listed as 1.69 ± 0.37. Moreover, the “TransportTC/TransportMC ratio (net transport ratio)” value (“TransportTC/TransportMC ratio” below) on rat Oatp1a1 is 1.41 ± 0.67; on rat Ntcp, 1.71 ± 0.15.

Regarding `O=C(O)c1ccc(O)c(O)c1` [Protocatechuic acid, protocatechuic acid], on rat Bsep (setting [1]), the “TransportATP/TransportAMP ratio” value worked out at 1.13 ± 0.17. For the same compound, the “TransportTC/TransportMC ratio” value on rat Oatp1a1 came out at 1.66 ± 0.77; on rat Ntcp it was 1.04 ± 0.27.

`O=C(/C=C/c1ccc(O)c(O)c1)O[C@H](Cc1ccc(O)c(O)c1)C(=O)O` [Rosmarinic acid, rosmarinic acid]: the “TransportATP/TransportAMP ratio” value at rat Bsep (rat, 100 μM, pH 7) was 1.39 ± 0.36.

`O=C(/C=C/c1ccc(O)c(O)c1/C=C/c1ccc(O)c(O)c1)O[C@H](Cc1ccc(O)c(O)c1)C(=O)O` [Salvianolic acid A, salvianolic acid A]: on rat Bsep (rat, 100 μM, pH 7), the “TransportATP/TransportAMP ratio” value is 0.75 ± 0.12.

`O=C(O)Cc1c(/C=C/C(=O)O[C@H](Cc2ccc(O)c(O)c2)C(=O)O)ccc(O)c1O` [Salvianolic acid D, salvianolic acid D]: the “TransportATP/TransportAMP ratio” value on rat Bsep (setting [1]) worked out at 1.09 ± 0.23. The entries for the “TransportTC/TransportMC ratio” value at rat Oatp1a1 and at rat Ntcp were 2.45 ± 1.88 and 1.49 ± 0.23, respectively.

For salvianolic acid B, the “TransportATP/TransportAMP ratio” value at rat Bsep (setting [1]) came out at 1.52 ± 0.67. Moreover, the results for the “TransportTC/TransportMC ratio” value at rat Oatp1a1 and at rat Ntcp were 1.91 ± 0.42 and 1.90 ± 0.02, respectively.
